Among the data in ChEMBL document CHEMBL1201862, “PubChem BioAssay data set” (2004) are IC50 values, retold here.

Each structure is given as a SMILES string. Activity calls are given as the source filed them. Rule as the data show it: active = IC50 of 10 µM or less and inactive = more.

As a reminder, the IC50 is the concentration that gives 50% inhibition.

The target in test [1] is Melanin-concentrating hormone receptor 1 (Homo sapiens, UniProt Q99705). In words: Late-stage fluorescence-based counterscreen for antagonists of the G-protein coupled receptor 7 (GPR7): cell-based dose response assay to identify antagonists of the melanin-concentrating hormone receptor 1 (MCHR1) Set 6. It is filed as functional. (The purpose of a counterscreen is to sort out artefacts and off-target activity.)
Chain of Melanin-concentrating hormone receptor 1 (Q99705 whole entry): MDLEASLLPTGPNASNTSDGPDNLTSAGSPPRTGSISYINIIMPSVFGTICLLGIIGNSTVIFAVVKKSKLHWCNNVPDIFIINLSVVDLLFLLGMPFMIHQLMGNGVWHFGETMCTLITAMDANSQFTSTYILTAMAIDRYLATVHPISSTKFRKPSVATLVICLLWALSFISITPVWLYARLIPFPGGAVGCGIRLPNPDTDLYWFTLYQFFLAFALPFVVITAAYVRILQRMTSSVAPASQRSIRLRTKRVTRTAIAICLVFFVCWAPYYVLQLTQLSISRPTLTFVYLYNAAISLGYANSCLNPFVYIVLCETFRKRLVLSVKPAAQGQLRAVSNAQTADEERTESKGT

In test [2] the target is Neuropeptides B/W receptor type 1 (Homo sapiens, UniProt P48145). In words: human NPBW1 receptor blockade, IC50 – cell-based, fluorescence, dose response, set 6, late-stage follow-up (AID 588583). It is filed as functional.
Chain of Neuropeptides B/W receptor type 1 (P48145 whole entry): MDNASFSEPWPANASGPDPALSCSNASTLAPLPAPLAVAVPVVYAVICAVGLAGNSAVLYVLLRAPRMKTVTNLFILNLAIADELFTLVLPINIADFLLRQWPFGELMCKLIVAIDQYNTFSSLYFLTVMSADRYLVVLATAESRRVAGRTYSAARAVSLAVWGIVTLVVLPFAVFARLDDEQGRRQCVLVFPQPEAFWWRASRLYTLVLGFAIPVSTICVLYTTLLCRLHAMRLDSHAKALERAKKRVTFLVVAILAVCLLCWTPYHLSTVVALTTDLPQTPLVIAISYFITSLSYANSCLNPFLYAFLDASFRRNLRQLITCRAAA

Regarding `N#CC(c1c(F)cccc1F)c1c(Cl)cnn(Cc2cccc3ccccc23)c1=O` (configuration not stated), the IC50 in test [1] and in test [2] was 1610 nM (active) in each case.
